Laboratory results from patent publication US4138491A, “Method for treating diabetes” (Daiichi Seiyaku Co., Ltd., priority 1976, dated 1979).

How the values were obtained:
blood sugar level [1] = experiment: Glucose tolerance test in normal rats (oral compound, glucose load 1 hour later); assay type: in vivo, normal rat; settings: for Glucose Tolerance Improving Activity / Blood Glucose Level, 0 min / Blood Glucose Level, 15 min / Blood Glucose Level, 30 min / Blood Glucose Level, 60 min / Blood Glucose Level, 90 min / Blood Glucose Level, before glucose load (-60 min.): glucose 2 g/kg; for Glucose Tolerance Improving Activity: sum of increments at 15, 30, 60, 90 min vs control, 100 = no improvement
Method: (§1) One index for the treatment of diabetes is to improve this glucose tolerance. The compound of the present invention was orally administered to normal rats, Streptozotocin-induced mildly diabetic rats and AYKK-mice, and thereafter glucose was administered intraperitoneally 1 hour later, and the glucose tolerance was examined. […] Further, a lowering of blood sugar in the glucose tolerance test using normal rats was examined with the passage of time, and the results obtained are given in Table 1 below.
(§2) A sample aqueous solution or suspension was orally administered to the test animals which had been fasted for 24 hours and one hour later glucose was intraperitoneally or subcutaneously administered to the test animals. Thereafter, blood was sampled from the tail vein with the passage of time in order to determine the blood sugar level by the glucose-oxidase method.

blood sugar level [2] = experiment: Blood sugar lowering activity, fasted rat; assay type: in vivo
Method: (§3) The compounds of the present invention were orally administered to normal rats, mice, dogs and hereditary diabetic mice(AYKK-mice), and the blood sugar lowering activity was examined.
(§4) Test animals which were used included animals which had been fasted for 24 hours to achieve an empty stomach, and animals which had been fed to achieve a full stomach without any restriction of diet. A sample aqueous solution or suspension was orally administered, and blood was sampled with the passage of time from the tail vein or the cephalic vein in order to determine the level of blood sugar by the glucose-oxidase method.

blood sugar level [3] = experiment: Blood sugar lowering activity, fed mouse; assay type: in vivo
Method: as §3, §4

blood sugar level [4] = experiment: Blood sugar lowering activity, fasted beagle; assay type: in vivo, beagle dog; settings: 25 mg/kg PO
Method: as §3, §4

blood sugar level [5] = experiment: Blood sugar lowering activity, fed AγKK (AYKK) mouse, hereditary diabetic; assay type: in vivo; settings: for Blood Sugar Level (control = 100), 1 Hr / Blood Sugar Level (control = 100), 2 Hrs / Blood Sugar Level (control = 100), 3 Hrs / Blood Sugar Level (control = 100), 5 Hrs: fed AγKK mouse
Method: as §3, §4

blood sugar level [6] = experiment: Glucose tolerance test in AYKK mice; assay type: in vivo, AYKK mouse; settings: glucose 1 g/kg, sum of increments at 15, 30, 60, 90 min vs control, 100 = no improvement
Method: as §1, §2
*5AYKK-mouse was obtained by mating a yellow mouse having symptoms of […]

[7] = tested on: blood platelet aggregation induced by collagen in rat platelet rich plasma; experiment: Blood platelet aggregation inhibiting activity (collagen induced, in vitro); assay type: cell-based; settings: read-out: Platelet Aggregation Inhibition Activity, ID50
Method: It is generally said that blood platelet aggregability is accelerated in a diabetes patient and that this secondarily causes blood vessel disorders. […] Thus, based on this the compounds of the present invention are expected to be useful in preventing and improving the secondary vasular lesions of diabetes mellitus.
Citrated rat blood was centrifuged in order to obtain platelet rich plasma, and to 0.4 ml of this plasma was added 50 μl of sample solution. To the resulting solution was added 50 μl of collagen suspension under stirring, and platelet aggregation reaction was determined according to the method of Born [Nature, Vol. 194, pp. 927 (1962)]. The concentration of the sample (ID50) which inhibits 50% of the aggregation reaction of the control without the test sample added is shown in Table 6 below.

Acute toxicity (rat) = settings: in vivo, read-out: Acute Toxicity (rat) ID50
blood sugar level [8] = experiment: Glucose tolerance test in streptozotocin-induced mildly diabetic rats; assay type: in vivo, rat (Wistar strain); settings: 20 mg/kg PO; glucose 1 g/kg; sum of increments at 15, 30, 60, 90 min vs control; 100 = no improvement
Method: as §1, §2
*4The streptozotocin-induced mildly diabetic rats were produced by […]

blood insulin [9] = experiment: Insulin releasing action, fed rats; assay type: in vivo, rat; settings: 50 mg/kg iv
Method: (§5) Among the test animals fed rats were anesthetized by administration of pentobarbital (40 mg/kg, ip), and administered, intravenously with an isotonic sodium chloride solution of Compound A. An aqueous solution of the sample was orally administered to fed mice. In both cases blood was sampled from the tail vein with the passage of time, and the blood insulin was determined by the radioimmunoassay method of Morgen et al [Diabetes, Vol. 12, pp 115 (1963)]. At the same time blood sugar was also determined. […] The amount of insulin released in Table 4 was obtained by determining the difference between the blood insulin level at 5 points (5, 10, 20, 30, 40 minutes) during a 40 minute period after administration of the sample in the case of rats or 3 points (0.5, 1.0, 2.0 hours) during a 2 hour period after administration of the sample in the case of mice and the blood insulin level at 0 minute just before administration of the sample and then by summing up these differences.

blood insulin [10] = experiment: Insulin releasing action, fed mice; assay type: in vivo, mouse
Method: as §5

With `c1ccc(C(CC2=NCCN2)c2ccccn2)cc1` (stereo not drawn) [Compound B, 2-[2-phenyl-2-(2-pyridyl)]ethylimidazoline] the “Glucose Tolerance Improving Activity” value (blood sugar level [1]; 10 mg/kg PO) was 22.0%, the “Blood Glucose Level, 0 min” value (blood sugar level [1]; 10 mg/kg) was 74 ± 3 mg/dL and the “Blood Glucose Level, 15 min” value (blood sugar level [1]; 10 mg/kg) was 91 ± 9 mg/dL. The “Blood Glucose Level, 30 min” value (blood sugar level [1]; 10 mg/kg) was 91 ± 5 mg/dL, the “Blood Glucose Level, 60 min” value (blood sugar level [1]; 10 mg/kg) was 79 ± 4 mg/dL and the “Blood Glucose Level, 90 min” value (blood sugar level [1]; 10 mg/kg) was 68 ± 5 mg/dL. The “Blood Glucose Level, before glucose load (-60 min.)” value (blood sugar level [1]; 10 mg/kg) was 90 ± 2 mg/dL, the “blood sugar level maintained after glucose load” value (blood sugar level [1]; normal rats, Table 1, in words) was “maintains the blood sugar level in the range of the fasting blood sugar level” and the “rise in blood sugar level due to the glucose load” value (blood sugar level [1]; normal rats, Table 1, in words) was “scarcely any rise in blood sugar level”. The “Blood Sugar Level (control = 100), 1 Hr” value (blood sugar level [2]; 10 mg/kg PO) was 71%, the “Blood Sugar Level (control = 100), 2 Hrs” value (blood sugar level [2]; 10 mg/kg PO) was 67% and the “Blood Sugar Level (control = 100), 3 Hrs” value (blood sugar level [2]; 10 mg/kg PO) was 58%. The “Blood Sugar Level (control = 100), 5 Hrs” value (blood sugar level [2]; 10 mg/kg PO) was 73%, the “Blood Sugar Level (control = 100), 1 Hr” value (blood sugar level [2]; 25 mg/kg PO) was 83% and the “Blood Sugar Level (control = 100), 2 Hrs” value (blood sugar level [2]; 25 mg/kg PO) was 68%. The “Blood Sugar Level (control = 100), 3 Hrs” value (blood sugar level [2]; 25 mg/kg PO) was 68%, the “Blood Sugar Level (control = 100), 5 Hrs” value (blood sugar level [2]; 25 mg/kg PO) was 76% and the “Blood Sugar Level (control = 100), 1 Hr” value (blood sugar level [3]; 25 mg/kg PO) was 77%. The “Blood Sugar Level (control = 100), 2 Hrs” value (blood sugar level [3]; 25 mg/kg PO) was 68%, the “Blood Sugar Level (control = 100), 3 Hrs” value (blood sugar level [3]; 25 mg/kg PO) was 78% and the “Blood Sugar Level (control = 100), 5 Hrs” value (blood sugar level [3]; 25 mg/kg PO) was 86%. For the same compound, the “Blood Sugar Level (control = 100), 1 Hr” value (blood sugar level [4]; 1 h) was 76%, the “Blood Sugar Level (control = 100), 2 Hrs” value (blood sugar level [4]; 2 h) was 58% and the “Blood Sugar Level (control = 100), 3 Hrs” value (blood sugar level [4]; 3 h) was 70%. The “Blood Sugar Level (control = 100), 5 Hrs” value (blood sugar level [4]; 5 h) was 71%, the “Blood Sugar Level (control = 100), 1 Hr” value (blood sugar level [5]; 25 mg/kg PO) was 77% and the “Blood Sugar Level (control = 100), 2 Hrs” value (blood sugar level [5]; 25 mg/kg PO) was 75%. For the same compound, the “Blood Sugar Level (control = 100), 3 Hrs” value (blood sugar level [5]; 25 mg/kg PO) was 72%, the “Blood Sugar Level (control = 100), 5 Hrs” value (blood sugar level [5]; 25 mg/kg PO) was 78% and the “Glucose Tolerance Improving Activity” value (blood sugar level [6]; 25 mg/kg PO) was 62.7%. For the same compound, the IC50 [7] was 300 µM and the LD50 (Acute toxicity (rat)) was 867 mg/kg.

In the case of `CCCCNC(=O)NS(=O)(=O)c1ccc(C)cc1` [Tolbutamide, reference compound], the “Glucose Tolerance Improving Activity” value (blood sugar level [1]; 20 mg/kg PO) is reported as 64.5%, the “Blood Glucose Level, 0 min” value (blood sugar level [1]; 20 mg/kg) is reported as 79 ± 2 mg/dL and the “Blood Glucose Level, 15 min” value (blood sugar level [1]; 20 mg/kg) is reported as 121 ± 5 mg/dL. The “Blood Glucose Level, 30 min” value (blood sugar level [1]; 20 mg/kg) was 114 ± 5 mg/dL, the “Blood Glucose Level, 60 min” value (blood sugar level [1]; 20 mg/kg) was 98 ± 5 mg/dL and the “Blood Glucose Level, 90 min” value (blood sugar level [1]; 20 mg/kg) was 90 ± 4 mg/dL. For the same compound, the “Blood Glucose Level, before glucose load (-60 min.)” value (blood sugar level [1]; 20 mg/kg) was 80 ± 2 mg/dL, the “Blood Sugar Level (control = 100), 1 Hr” value (blood sugar level [2]; 10 mg/kg PO) was 96% and the “Blood Sugar Level (control = 100), 2 Hrs” value (blood sugar level [2]; 10 mg/kg PO) was 89%. For the same compound, the “Blood Sugar Level (control = 100), 3 Hrs” value (blood sugar level [2]; 10 mg/kg PO) was 92%, the “Blood Sugar Level (control = 100), 5 Hrs” value (blood sugar level [2]; 10 mg/kg PO) was 91% and the “Blood Sugar Level (control = 100), 1 Hr” value (blood sugar level [2]; 25 mg/kg PO) was 90%. For the same compound, the “Blood Sugar Level (control = 100), 2 Hrs” value (blood sugar level [2]; 25 mg/kg PO) was 80%, the “Blood Sugar Level (control = 100), 3 Hrs” value (blood sugar level [2]; 25 mg/kg PO) was 76% and the “Blood Sugar Level (control = 100), 5 Hrs” value (blood sugar level [2]; 25 mg/kg PO) was 82%. The “Blood Sugar Level (control = 100), 1 Hr” value (blood sugar level [3]; 50 mg/kg PO) was 95%, the “Blood Sugar Level (control = 100), 2 Hrs” value (blood sugar level [3]; 50 mg/kg PO) was 92% and the “Blood Sugar Level (control = 100), 3 Hrs” value (blood sugar level [3]; 50 mg/kg PO) was 74%. For the same compound, the “Blood Sugar Level (control = 100), 5 Hrs” value (blood sugar level [3]; 50 mg/kg PO) was 96%, the “Blood Sugar Level (control = 100), 1 Hr” value (blood sugar level [5]; 50 mg/kg PO) was 94% and the “Blood Sugar Level (control = 100), 2 Hrs” value (blood sugar level [5]; 50 mg/kg PO) was 86%. The “Blood Sugar Level (control = 100), 3 Hrs” value (blood sugar level [5]; 50 mg/kg PO) was 86%, the “Blood Sugar Level (control = 100), 5 Hrs” value (blood sugar level [5]; 50 mg/kg PO) was 92% and the “effectiveness on AYKK-mice (blood sugar lowering)” value (blood sugar level [5]; oral, AYKK-mice, in words) was “uneffective”. The “Glucose Tolerance Improving Activity” value (blood sugar level [8]) was 67.4%, the “Glucose Tolerance Improving Activity” value (blood sugar level [6]; 50 mg/kg PO) was 69.6% and the “Blood Sugar Level” value (blood insulin [9]; after 90 minutes, control = 100) was 56%. For the same compound, the “Amount of Insulin Released” value (blood insulin [9]; sum of differences at 5, 10, 20, 30, 40 min) was 189±26 μunit/ml, the “Blood Sugar Level” value (blood insulin [10]; fed mice, 50 mg/kg po, after 2 hours, control = 100) was 95.7% and the “Amount of Insulin Released” value (blood insulin [10]; fed mice, 50 mg/kg po, sum of differences at 0.5, 1.0, 2.0 hours) was -2.2±3.3 μunit/ml. For the same compound, the “insulin releasing action in mice” value (blood insulin [10]; mice, in words) was “little action on insulin release”.
